Experimental data as given in the NIST ThermoML archive (doi:10.1016/j.jct.2007.11.009).

Test: xn = mol fraction of the nth substance listed
Conditions: Liquid, Vibrating tube method

CCCCCCCC [octane] + c1ccccc1
mass density [kg/m3]
Conditions	x1 = 0.1097	x1 = 0.2036	x1 = 0.2984	x1 = 0.4069	x1 = 0.5027	x1 = 0.5904	x1 = 0.6989	x1 = 0.7964	x1 = 0.904	x1 = 1
298.15 K, 100 kPa	838.3	813.5	792.3	771.6	755.7	743	729.1	718.2	707.3	698.7
298.15 K, 2130 kPa	839.9	815.2	794	773.3	757.4	744.8	730.9	719.9	709.1	700.4
298.15 K, 4150 kPa	841.6	816.9	795.7	775.1	759.2	746.5	732.6	721.7	710.8	702.2
298.15 K, 6180 kPa	843.3	818.6	797.4	776.8	760.9	748.2	734.3	723.4	712.4	703.8
298.15 K, 8210 kPa	844.9	820.2	799.1	778.5	762.5	749.9	735.9	725	714.1	705.4
298.15 K, 10230 kPa	846.5	821.8	800.7	780.1	764.2	751.5	737.6	726.7	715.7	707
298.15 K, 11250 kPa	847.3	822.7	801.5	780.9	765	752.3	738.4	727.5	716.5	707.8
298.15 K, 12260 kPa	848.1	823.5	802.4	781.7	765.8	753.2	739.2	728.3	717.3	708.6
298.15 K, 14290 kPa	849.7	825.1	803.9	783.4	767.4	754.7	740.8	729.8	718.8	710.1
298.15 K, 16310 kPa	851.2	826.6	805.5	784.9	769	756.3	742.4	731.4	720.4	711.7
298.15 K, 18340 kPa	852.7	828.1	807	786.4	770.5	757.8	743.8	732.9	721.9	713.1
298.15 K, 20370 kPa	854.2	829.6	808.5	788	772	759.3	745.3	734.4	723.3	714.6
298.15 K, 22390 kPa	855.7	831.1	810	789.4	773.4	760.8	746.8	735.8	724.8	715.9
298.15 K, 24420 kPa	857.1	832.6	811.5	790.8	774.9	762.2	748.2	737.2	726.2	717.4
298.15 K, 26450 kPa	858.5	834	812.9	792.3	776.3	763.6	749.6	738.7	727.5	718.8
298.15 K, 28470 kPa	859.9	835.4	814.3	793.7	777.7	765	751	740	728.9	720.1
298.15 K, 29490 kPa	860.6	836.1	815	794.3	778.4	765.7	751.7	740.7	729.6	720.8
298.15 K, 30500 kPa	861.3	836.8	815.7	795	779.1	766.4	752.4	741.4	730.2	721.4
298.15 K, 32530 kPa	862.6	838.1	817	796.4	780.4	767.7	753.7	742.7	731.5	722.7
298.15 K, 34550 kPa	864	839.5	818.4	797.8	781.8	769.1	755	744.1	732.9	724
298.15 K, 36580 kPa	865.3	840.8	819.7	799.1	783.1	770.4	756.4	745.4	734.2	725.3
298.15 K, 38600 kPa	866.6	842.1	821	800.4	784.4	771.7	757.6	746.5	735.4	726.5
298.15 K, 39620 kPa	867.3	842.7	821.6	801	785	772.3	758.2	747.1	736	727.1
308.15 K, 100 kPa	828.4	803.9	783	762.6	747	734.5	720.8	709.9	699.3	690.8
308.15 K, 2130 kPa	830.2	805.7	784.9	764.5	748.8	736.4	722.7	711.8	701.1	692.6
308.15 K, 4150 kPa	832	807.5	786.7	766.3	750.7	738.2	724.5	713.7	703	694.4
308.15 K, 6180 kPa	833.7	809.3	788.5	768.2	752.5	740	726.3	715.5	704.8	696.2
308.15 K, 8210 kPa	835.5	811.1	790.3	770	754.3	741.8	728.1	717.2	706.5	698
308.15 K, 10230 kPa	837.2	812.8	792	771.7	756.1	743.6	729.9	719	708.3	699.7
308.15 K, 11250 kPa	838	813.7	792.9	772.6	756.9	744.4	730.7	719.8	709.1	700.5
308.15 K, 12260 kPa	838.8	814.5	793.7	773.4	757.8	745.3	731.6	720.7	709.9	701.3
308.15 K, 14290 kPa	840.5	816.2	795.4	775.1	759.5	747	733.2	722.3	711.6	703
308.15 K, 16310 kPa	842.1	817.8	797	776.7	761.1	748.6	734.8	723.9	713.1	704.5
308.15 K, 18340 kPa	843.7	819.5	798.7	778.4	762.7	750.2	736.5	725.5	714.8	706.1
308.15 K, 20370 kPa	845.3	821	800.3	780	764.3	751.8	738	727.1	716.3	707.6
308.15 K, 22390 kPa	846.8	822.6	801.8	781.5	765.8	753.3	739.6	728.6	717.8	709.1
308.15 K, 24420 kPa	848.3	824.1	803.4	783.1	767.4	754.8	741.1	730.1	719.3	710.6
308.15 K, 26450 kPa	849.8	825.6	804.9	784.6	768.9	756.3	742.6	731.6	720.8	712
308.15 K, 28470 kPa	851.3	827.1	806.4	786	770.4	757.8	744	733	722.2	713.4
308.15 K, 29490 kPa	852	827.8	807.1	786.8	771.1	758.5	744.8	733.7	722.9	714.1
308.15 K, 30500 kPa	852.7	828.6	807.8	787.5	771.8	759.2	745.5	734.4	723.6	714.8
308.15 K, 32530 kPa	854.2	830	809.2	788.9	773.2	760.7	746.9	735.8	725	716.2
308.15 K, 34550 kPa	855.5	831.4	810.6	790.3	774.6	762	748.3	737.2	726.3	717.5
308.15 K, 36580 kPa	856.9	832.8	812	791.7	776	763.4	749.6	738.5	727.7	718.8
308.15 K, 38600 kPa	858.3	834.2	813.4	793.1	777.3	764.7	750.9	739.9	729	720.2
308.15 K, 39620 kPa	859	834.9	814.1	793.7	778	765.4	751.6	740.6	729.7	720.8
